Non-standard residues stand in square brackets, D forms with d. Residues, ends and D or L forms follow the SMILES beside them. *: point of attachment. 5FAM = O=C1OC2(c3ccc(O)cc3Oc3cc(O)ccc32)c2ccc(C(=O)*)cc21; pY = N[C@@H](Cc1ccc(OP(=O)(O)O)cc1)C(=O)O
Tests used:
[1] = tested on: SK-OV-3 cells; test: MTS cell viability (cytotoxicity) assay; conditions: peptide 10, 50 and 100 µM (up to 100 µM), 3 h incubation, 37 °C, read at 490 nm, triplicate
Description: (§1) To determine concentration of peptide to be used in in vitro assays, the cytotoxicity of peptides was evaluated in two cell lines, human ovarian (SK-OV-3) and leukemia (CCRF-CEM) cancer cells.
(§2) Human leukemia CCRF-CEM (ATCC # CCL-119) and ovarian carcinoma SK-OV-3 (ATCC # HTB-77) cell lines were purchased from the American Type Culture Collection. Cells were grown on 75 cm^2 cell culture flasks. The Roswell Park Memorial Institute (RPMI)-1640 medium was used for leukemia cells and McCoy’s 5A medium was used for SK-OV-3 cells. The medium was supplemented with 10% fetal bovine serum (FBS), 1% penicillin−streptomycin solution (10,000 units of penicillin, and 10 mg of streptomycin in 0.9% NaCl) in a humidified atmosphere of 5% CO2 at 37 °C. All bioassays were performed in triplicate.
(§3) The cytotoxicity assay was performed via an MTS proliferation assay in CCRF-CEM and SK-OV-3 cells. CCRF-CEM (40,000 cells) and SK-OV-3 (5000 cells) were incubated with 100 µL of complete media. The cells were seeded overnight in 96 well plates. […] The fluorescence intensity of the formazan product was measured at 490 nm using a Spectra Max M2 microplate spectrophotometer. The percentage of cell survival was calculated as [(OD value of cells treated with the test mixture of compounds) − (OD value of culture medium)]/[(OD value of control cells) − (OD value of culture medium)] × 100%.

[2] = tested on: CCRF-CEM cells; test: MTS cell viability (cytotoxicity) assay; conditions: peptide 10, 50 and 100 µM (up to 100 µM), 3 h incubation, 37 °C, read at 490 nm, triplicate
Description: as §1, §2, §3

[3] = tested on: SK-OV-3 cells; test: Live cell fluorescence microscopy of F’-GpYEEI uptake; type: cell-based, human; conditions: F’-GpYEEI 5 µM alone, no carrier peptide, 3 h, FITC channel
Description: Fluorescence microscopy was used to confirm the intracellular uptake of F’-GpYEEI in the presence of cyclic [WH]5. The fluorescence intensity of F’-GpYEEI (5 µM) was visualized in a physical mixture with cyclic [WH]5 (50 µM) compared to that of F’-GpYEEI alone in SK-OV-3 cells. […] F’-GpYEEI alone was used as a control in this assay. Live cell imaging was carried using glass-bottom plates.
SK-OV-3 cells were grown with antibiotic-free DMEM 24 h prior to the experiment in a glass bottom petri-dish (60 mm × 15 mm) of 5000 cells per mL of media. The F’-GpYEEI was incubated with cyclic [WH]5 for 30 min at room temperature. Then, the cells were treated with a mixture of F’-GpYEEI (5 μM) and cyclic [WH]5 (50 μM) in Opti-MEM for 3 h at 37 °C. After 3 h, the medium containing the treatments was removed, and PBS was added to cells. The cells were washed with PBS for two times. Images were acquired with BZ-X710 fluorescence microscope (Keyence, Osaka, Japan) at 100× magnification for brightfield and FITC channels. Images were merged and processed using Image J software to visualize the fluorescence uptake by cells.

## O=C1N[C@@H](Cc2c[nH]c3ccccc23)C(=O)N[C@@H](Cc2c[nH]cn2)C(=O)N[C@@H](Cc2c[nH]c3ccccc23)C(=O)N[C@@H](Cc2c[nH]cn2)C(=O)N[C@@H](Cc2c[nH]c3ccccc23)C(=O)N[C@@H](Cc2c[nH]cn2)C(=O)N[C@@H](Cc2c[nH]c3ccccc23)C(=O)N[C@@H](Cc2c[nH]cn2)C(=O)N[C@@H](Cc2c[nH]c3ccccc23)C(=O)N[C@H]1Cc1c[nH]cn1 [cyclic [WH]5] (cyclo(HWHWHWHWHW))
[1]
  cytotoxicity (cell survival, MTS): did not show significant toxicity
[2]
  cytotoxicity (cell survival, MTS): did not show significant toxicity

## CC[C@H](C)[C@H](NC(=O)[C@H](CCC(=O)O)NC(=O)[C@H](CCC(=O)O)NC(=O)[C@H](Cc1ccc(OP(=O)(O)O)cc1)NC(=O)CNC(=O)c1ccc2c(c1)C(=O)OC21c2ccc(O)cc2Oc2cc(O)ccc21)C(=O)O [F’-GpYEEI] (5FAM-G[pY]EEI-OH)
[3]
  cellular uptake of F’-GpYEEI alone (fluorescence microscopy): No green fluorescence was observed

— publication PMC6100250, “Efficient Intracellular Delivery of Cell-Impermeable Cargo Molecules by Peptides Containing Tryptophan and Histidine” (Molecules : A Journal of Synthetic Chemistry and Natural …, 2018)
